One experiment deals with P-P70S6K (T389). In words: Cell based AlphaLISA assay, inhibition of P-P70S6K (T389) (mTORC1 substrate phosphorylation) in MDA-MB-468 cells. Conditions: Homo sapiens, 4 h, AlphaLISA, two to four hours at 37° C., read-out: pIC50 for Inhibition of mTORC1 and mTORC2 Substrate Phosphorylation, P-P70S6K-(T389) (converted). Put shortly:
(§1)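 AlphaLISA SureFire Ultra detection of phosphorylated substrate in lysed cells; duplicate Alpha reads; control-normalized IC50 fitting.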
(In general: Bead proximity is the source of the signal in Alpha formats.)

The next experiment has as its system P-4E-BP1 (T37/46). As to the kind of experiment: Cell based AlphaLISA assay, inhibition of P-4E-BP1 (T37/46) (mTORC1 substrate phosphorylation) in MDA-MB-468 cells. Conditions: Homo sapiens, MDA-MB-468, 4 h, AlphaLISA, two to four hours at 37° C., read-out: pIC50 for Inhibition of mTORC1 and mTORC2 Substrate Phosphorylation, P-4E-BP1-(T37/46) (converted). Put shortly: as §1

A further experiment concerns P-Akt (S473). In words: Cell based AlphaLISA assay, inhibition of P-Akt (S473) (mTORC2 substrate phosphorylation) in MDA-MB-468 cells. The following applies: Homo sapiens, MDA-MB-468, 4 h, AlphaLISA, two to four hours at 37° C., read-out: pIC50 for Inhibition of mTORC1 and mTORC2 Substrate Phosphorylation, p-AKT 1/2/3 -(S473) (converted). The essentials:
as §1

Consider 16 compounds from US20230093861A1, “RAPAMYCIN ANALOGS AS MTOR INHIBITORS” (Revolution Medicines, Inc., priority 2017, published 2023).

Turning to `CO[C@H]1C[C@@H]2CC[C@@H](C)[C@@](O)(O2)C(=O)C(=O)N2CCCC[C@H]2C(=O)O[C@H]([C@H](C)C[C@@H]2CC[C@H](n3cc(-c4cccc(C(=O)NCCOCCOCCOCCC(=O)NCCOCCOCCOCCC(=O)NCCCCn5nc(-c6cc7cc(O)ccc7[nH]6)c6c(N)ncnc65)c4)nn3)[C@H](OC)C2)CC(=O)[C@H](C)/C=C(\C)[C@@H](O)[C@@H](OC)C(=O)[C@H](C)C[C@H](C)/C=C/C=C/C=C/1C` [Example 138], the IC50 with P-P70S6K (T389) was 1 to 10 nM; with P-4E-BP1 (T37/46), over 1000 nM; in the experiment on P-Akt (S473), 31.6 to 1000 nM.
Regarding `CO[C@H]1C[C@@H]2CC[C@@H](C)[C@@](O)(O2)C(=O)C(=O)N2CCCC[C@H]2C(=O)O[C@H]([C@H](C)C[C@@H]2CC[C@H](n3cc(-c4cccc(C(=O)NCCOCCOCCOCCC(=O)NCCOCCOCCOCCOCCC(=O)NCCCCn5nc(-c6ccc7oc(N)nc7c6)c6c(N)ncnc65)c4)nn3)[C@H](OC)C2)CC(=O)[C@H](C)/C=C(\C)[C@@H](O)[C@@H](OC)C(=O)[C@H](C)C[C@H](C)/C=C/C=C/C=C/1C` [Example 139], the figures for the IC50 with P-P70S6K (T389), in the experiment on P-4E-BP1 (T37/46) and in the experiment with P-Akt (S473) were 1 to 10 nM, 3.16 to 31.6 nM and 3.16 to 31.6 nM, respectively.
Take `CO[C@H]1C[C@@H]2CC[C@@H](C)[C@@](O)(O2)C(=O)C(=O)N2CCCC[C@H]2C(=O)O[C@H]([C@H](C)C[C@@H]2CC[C@H](n3cc(-c4cccc(C(=O)NCCOCCOCCOCCC(=O)NCCOCCOCCOCCOCCC(=O)NCCCCn5nc(-c6cc7cc(O)ccc7[nH]6)c6c(N)ncnc65)c4)nn3)[C@H](OC)C2)CC(=O)[C@H](C)/C=C(\C)[C@@H](O)[C@@H](OC)C(=O)[C@H](C)C[C@H](C)/C=C/C=C/C=C/1C` [Example 140]: the figures for the IC50 in the experiment on P-P70S6K (T389), in the experiment on P-4E-BP1 (T37/46) and in the experiment with P-Akt (S473) were 1 to 10 nM, 3.16 to 31.6 nM and 31.6 to 1000 nM, respectively.
Taken in the same sequence, the figures for `CO[C@H]1C[C@@H]2CC[C@@H](C)[C@@](O)(O2)C(=O)C(=O)N2CCCC[C@H]2C(=O)O[C@H]([C@H](C)C[C@@H]2CC[C@H](n3cc(-c4cccc(C(=O)NCCOCCOCCOCCOCCC(=O)NCCOCCOCCOCCOCCC(=O)NCCCCn5nc(-c6ccc7oc(N)nc7c6)c6c(N)ncnc65)c4)nn3)[C@H](OC)C2)CC(=O)[C@H](C)/C=C(\C)[C@@H](O)[C@@H](OC)C(=O)[C@H](C)C[C@H](C)/C=C/C=C/C=C/1C` [Example 141] were 1 to 10 nM, 3.16 to 31.6 nM and 3.16 to 31.6 nM.
As for `CO[C@H]1C[C@@H]2CC[C@@H](C)[C@@](O)(O2)C(=O)C(=O)N2CCCC[C@H]2C(=O)O[C@H]([C@H](C)C[C@@H]2CC[C@H](n3cc(-c4cccc(C(=O)NCCOCCOCCOCCOCCC(=O)NCCOCCOCCOCCOCCC(=O)NCCCCn5nc(-c6cc7cc(O)ccc7[nH]6)c6c(N)ncnc65)c4)nn3)[C@H](OC)C2)CC(=O)[C@H](C)/C=C(\C)[C@@H](O)[C@@H](OC)C(=O)[C@H](C)C[C@H](C)/C=C/C=C/C=C/1C` [Example 142], the IC50 in the experiment with P-P70S6K (T389) was 1 to 10 nM; in the experiment on P-4E-BP1 (T37/46) it was 3.16 to 31.6 nM; in the experiment with P-Akt (S473) it was 31.6 to 1000 nM.
With `CO[C@H]1C[C@@H]2CC[C@@H](C)[C@@](O)(O2)C(=O)C(=O)N2CCCC[C@H]2C(=O)O[C@H]([C@H](C)C[C@@H]2CC[C@H](n3cc(COC(=O)NCCOCCOCCOCCC(=O)NCCOCCOCCC(=O)NCCCCn4nc(-c5ccc6oc(N)nc6c5)c5c(N)ncnc54)nn3)[C@H](OC)C2)C[C@@H](OC)[C@H](C)/C=C(\C)[C@@H](O)[C@@H](OC)C(=O)[C@H](C)C[C@H](C)/C=C/C=C/C=C/1C` [Example 143], the values for the IC50 in the experiment on P-P70S6K (T389), in the experiment with P-4E-BP1 (T37/46) and in the experiment with P-Akt (S473) were 1 to 10 nM, 31.6 to 1000 nM and over 1000 nM, respectively.
Regarding `CO[C@H]1C[C@@H]2CC[C@@H](C)[C@@](O)(O2)C(=O)C(=O)N2CCCC[C@H]2C(=O)O[C@H]([C@H](C)C[C@@H]2CC[C@H](n3cc(COC(=O)NCCOCCOCCOCCC(=O)NCCOCCOCCC(=O)NCCCCn4nc(-c5cc6cc(O)ccc6[nH]5)c5c(N)ncnc54)nn3)[C@H](OC)C2)C[C@@H](OC)[C@H](C)/C=C(\C)[C@@H](O)[C@@H](OC)C(=O)[C@H](C)C[C@H](C)/C=C/C=C/C=C/1C` [Example 144], the IC50 with P-P70S6K (T389) was 10 to 1000 nM; in the experiment with P-4E-BP1 (T37/46), over 1000 nM; with P-Akt (S473), over 1000 nM.
`CO[C@H]1C[C@@H]2CC[C@@H](C)[C@@](O)(O2)C(=O)C(=O)N2CCCC[C@H]2C(=O)O[C@H]([C@H](C)C[C@@H]2CC[C@H](n3cc(COC(=O)NCCOCCOCCOCCC(=O)NCCOCCOCCOCCC(=O)NCCCCn4nc(-c5ccc6oc(N)nc6c5)c5c(N)ncnc54)nn3)[C@H](OC)C2)C[C@@H](OC)[C@H](C)/C=C(\C)[C@@H](O)[C@@H](OC)C(=O)[C@H](C)C[C@H](C)/C=C/C=C/C=C/1C` [Example 145]: the IC50 in the experiment on P-P70S6K (T389) was 1 to 10 nM; in the experiment with P-4E-BP1 (T37/46) it was 31.6 to 1000 nM; in the experiment with P-Akt (S473) it was over 1000 nM.
With `CO[C@H]1C[C@@H]2CC[C@@H](C)[C@@](O)(O2)C(=O)C(=O)N2CCCC[C@H]2C(=O)O[C@H]([C@H](C)C[C@@H]2CC[C@H](n3cc(COC(=O)NCCOCCOCCOCCC(=O)NCCOCCOCCOCCC(=O)NCCCCn4nc(-c5cc6cc(O)ccc6[nH]5)c5c(N)ncnc54)nn3)[C@H](OC)C2)C[C@@H](OC)[C@H](C)/C=C(\C)[C@@H](O)[C@@H](OC)C(=O)[C@H](C)C[C@H](C)/C=C/C=C/C=C/1C` [Example 146], the IC50 in the experiment on P-P70S6K (T389) was 1 to 10 nM; in the experiment on P-4E-BP1 (T37/46), over 1000 nM; in the experiment on P-Akt (S473), over 1000 nM.
For the compound `CCO[C@@H]1C[C@@H]([C@H](C)C[C@@H]2CC[C@H](n3cc(COC(=O)NCCOCCOCCOCCC(=O)NCCOCCOCCC(=O)NCCCCn4nc(-c5ccc6oc(N)nc6c5)c5c(N)ncnc54)nn3)[C@H](OC)C2)OC(=O)[C@@H]2CCCCN2C(=O)C(=O)[C@]2(O)O[C@@H](CC[C@H]2C)C[C@H](OC)/C(C)=C/C=C/C=C/[C@@H](C)C[C@@H](C)C(=O)[C@H](OC)[C@H](O)/C(C)=C/[C@H]1C` [Example 147], the IC50 with P-P70S6K (T389) is 10 to 1000 nM; with P-4E-BP1 (T37/46) it was 31.6 to 1000 nM; in the experiment on P-Akt (S473), over 1000 nM.
Taken in the same sequence, the figures for `CCO[C@@H]1C[C@@H]([C@H](C)C[C@@H]2CC[C@H](n3cc(COC(=O)NCCOCCOCCOCCC(=O)NCCOCCOCCC(=O)NCCCCn4nc(-c5cc6cc(O)ccc6[nH]5)c5c(N)ncnc54)nn3)[C@H](OC)C2)OC(=O)[C@@H]2CCCCN2C(=O)C(=O)[C@]2(O)O[C@@H](CC[C@H]2C)C[C@H](OC)/C(C)=C/C=C/C=C/[C@@H](C)C[C@@H](C)C(=O)[C@H](OC)[C@H](O)/C(C)=C/[C@H]1C` [Example 148] were 10 to 1000 nM, over 1000 nM and over 1000 nM.
Taken in the same sequence, the figures for `CCO[C@@H]1C[C@@H]([C@H](C)C[C@@H]2CC[C@H](n3cc(COC(=O)NCCOCCOCCOCCC(=O)NCCOCCOCCOCCC(=O)NCCCCn4nc(-c5ccc6oc(N)nc6c5)c5c(N)ncnc54)nn3)[C@H](OC)C2)OC(=O)[C@@H]2CCCCN2C(=O)C(=O)[C@]2(O)O[C@@H](CC[C@H]2C)C[C@H](OC)/C(C)=C/C=C/C=C/[C@@H](C)C[C@@H](C)C(=O)[C@H](OC)[C@H](O)/C(C)=C/[C@H]1C` [Example 149] were 1 to 10 nM, 31.6 to 1000 nM and 31.6 to 1000 nM.
The matching figures for `CCO[C@@H]1C[C@@H]([C@H](C)C[C@@H]2CC[C@H](n3cc(COC(=O)NCCOCCOCCOCCC(=O)NCCOCCOCCOCCC(=O)NCCCCn4nc(-c5cc6cc(O)ccc6[nH]5)c5c(N)ncnc54)nn3)[C@H](OC)C2)OC(=O)[C@@H]2CCCCN2C(=O)C(=O)[C@]2(O)O[C@@H](CC[C@H]2C)C[C@H](OC)/C(C)=C/C=C/C=C/[C@@H](C)C[C@@H](C)C(=O)[C@H](OC)[C@H](O)/C(C)=C/[C@H]1C` [Example 150]: 10 to 1000 nM, 31.6 to 1000 nM and over 1000 nM.
Take `CO/N=C1/C[C@@H]([C@H](C)C[C@@H]2CC[C@H](n3cc(COC(=O)NCCOCCOCCOCCC(=O)NCCOCCOCCC(=O)NCCCCn4nc(-c5ccc6oc(N)nc6c5)c5c(N)ncnc54)nn3)[C@H](OC)C2)OC(=O)[C@@H]2CCCCN2C(=O)C(=O)[C@]2(O)O[C@@H](CC[C@H]2C)C[C@H](OC)/C(C)=C/C=C/C=C/[C@@H](C)C[C@@H](C)C(=O)[C@H](OC)[C@H](O)/C(C)=C/[C@H]1C` [Example 151]: the values for the IC50 in the experiment with P-P70S6K (T389), in the experiment on P-4E-BP1 (T37/46) and in the experiment on P-Akt (S473) were 10 to 1000 nM, 31.6 to 1000 nM and over 1000 nM, respectively.
On to `CO/N=C1/C[C@@H]([C@H](C)C[C@@H]2CC[C@H](n3cc(COC(=O)NCCOCCOCCOCCC(=O)NCCOCCOCCC(=O)NCCCCn4nc(-c5cc6cc(O)ccc6[nH]5)c5c(N)ncnc54)nn3)[C@H](OC)C2)OC(=O)[C@@H]2CCCCN2C(=O)C(=O)[C@]2(O)O[C@@H](CC[C@H]2C)C[C@H](OC)/C(C)=C/C=C/C=C/[C@@H](C)C[C@@H](C)C(=O)[C@H](OC)[C@H](O)/C(C)=C/[C@H]1C` [Example 152], for which the IC50 in the experiment with P-P70S6K (T389) is 10 to 1000 nM; in the experiment with P-4E-BP1 (T37/46), over 1000 nM; in the experiment with P-Akt (S473), over 1000 nM.
As for `CO/N=C1/C[C@@H]([C@H](C)C[C@@H]2CC[C@H](n3cc(COC(=O)NCCOCCOCCOCCC(=O)NCCOCCOCCOCCC(=O)NCCCCn4nc(-c5ccc6oc(N)nc6c5)c5c(N)ncnc54)nn3)[C@H](OC)C2)OC(=O)[C@@H]2CCCCN2C(=O)C(=O)[C@]2(O)O[C@@H](CC[C@H]2C)C[C@H](OC)/C(C)=C/C=C/C=C/[C@@H](C)C[C@@H](C)C(=O)[C@H](OC)[C@H](O)/C(C)=C/[C@H]1C` [Example 153], the IC50 with P-P70S6K (T389) is 1 to 10 nM; in the experiment on P-4E-BP1 (T37/46), 31.6 to 1000 nM; in the experiment on P-Akt (S473), over 1000 nM.
